# Reference: US4678783A, “Substituted isoquinolinesulfonyl compounds” (Asahi Kasei Kogyo Kabushiki Kaisha, priority 1984, dated 1987)
# Tests used:
# [1] = system: mesenteric artery of a rabbit; experiment: Relaxation of Mesenteric Artery (KCl-contracted spiral strip); design: species or system rabbit of Japanese local variety; conditions: Oryctolagus cuniculus; concentration of the hydrochloride attaining 50% of complete relaxation; rabbit mesenteric artery contracted with KCl; read-out: ED50 (the source's name)
# Procedure: A rabbit of Japanese local variety weighing about 3 kg was subjected to blood-letting to death. Then, abdomen of the rabbit was dissected to pick up a mesenteric artery. […] Thus, the shrinkage and relaxation of the artery was ready to be measured as a load on the transducer. To the organ bath, KCl was added in an amount which makes the artery shrink at a half length that in 15 to 20 mM aqueous solution. Then, hydrochlorides of the compounds of the present invention were added to the organ bath to observe relaxation effect on the artery.
# Effect of the compounds of the present invention on relaxation of mesenteric artery was examined according to the method as mentioned hereinbefore.
# Acute Toxicity = conditions: mouse, in vivo; ddY male mice
# Procedure: Acute toxicity of the compounds of the present invention was determined according to the method given below, and the results are shown in Table 15. […] It is known from the results that the acute toxicity of the compounds of the present invention is satisfactorily low.
# Using ddY male mice, acute toxicity of the compounds of the present invention was examined according to the method proposed by K. Takagi et al. (K. Takagi and H. Ozawa, "Experimental Techniques in Pharmacology," p200-206 (1960), NANZANDO CO., LTD.).
# Acute toxicity test of the compounds of the present invention was effected according to the method as mentioned hereinbefore.
# [2] = system: male spontaneously hypertensive rats (SHR); experiment: Reduction of Blood Pressure (systolic, tail plethysmographic method, oral); format: in vivo, rat (SHR, Wister Kyoto)
# Procedure: Male spontaneously hypertensive rats (SHR, Wister Kyoto) weighing 300 to 350 g were used. Systolic blood pressure was measured indirectly by the tail plethysmographic method in conscious SHR, just prior to, and 1, 2, 4 and 6 hours after oral administration of test drugs. Test drugs, dissolved in deionized water, were administered orally in a volume of 10 ml-solution/kg-rat. Reduction in systolic blood pressure (ΔP, mmHg) was calculated by substracting a systolic blood pressure after administration from that just prior to administration.
# Effect of the compounds of the present invention on reduction of blood pressure was examined according to the method as mentioned hereinbefore.
# vertebral artery = experiment: Blood Flow Volume Increase of Vertebral Artery; format: in vivo, Mongrel dogs; conditions: intravenous, anesthetized dogs
# Procedure: (§1) A plethysmographic probe (manufactured and sold by NIHON KODEN CO., LTD.) was mounted on the femoral and vertebral arteries, and blood flow volume was measured by means of a electromagnetic blood flowmeter (type:MF-27, manufactured and sold by NIHON KODEN CO., LTD.). Under these conditions, compounds of the present invention were intravenously administered through a polyethylene tube inserted to a femoral veinlet, and change in blood flow volume was measured by means of the electromagnetic blood flowmeter.
# (§2) Effect of the compounds of the present invention on dilation of femoral and vertebral arteries was examined according to the method as mentioned hereinbefore.
# femoral artery = experiment: Blood Flow Volume Increase of Femoral Artery; format: in vivo, Mongrel dogs; conditions: intravenous, anesthetized dogs
# Procedure: as §1, §2
Structure (SMILES),EC50 [1] [µM],ΔPmax (maximally reduced blood pressure) ([2]; 100 mg/kg) [mmHg],also measured
"N=C(N)NCCNS(=O)(=O)c1cccc2c(Cl)nccc12 [Compound (31), N-(2-guanidinoethyl)-1-chloro-5-isoquinolinesulfonamide]",2,40,LD50 (Acute Toxicity): 160 mg/kg
"CC1CN(S(=O)(=O)c2cccc3cnccc23)CCCN1 (centres unmarked) [(3), 1-(5-isoquinolinesulfonyl)-3-methylhomopiperazine]",1.6,65,Increase in vertebral artery blood flow (vertebral artery; 0.3 mg/kg): 78%; LD50 (Acute Toxicity): 120 mg/kg; Increase in femoral artery blood flow (femoral artery; 0.3 mg/kg): 35%
"CCC1CN(S(=O)(=O)c2cccc3c(Cl)nccc23)CCN1 (centres unmarked) [Compound (39), 1-(1-chloro-5-isoquinolinesulfonyl)-3-ethylpiperazine]",18,48,–
"N=C(N)NCCCCNS(=O)(=O)c1cccc2c(Cl)nccc12 [Compound (32), N-(4-guanidinobutyl)-1-chloro-5-isoquinolinesulfonamide]",4,38,–
"CCCCCCNCCNS(=O)(=O)c1cccc2c(Cl)nccc12 [Compound (74), N-(2-hexylaminoethyl)-1-chloro-5-isoquinolinesulfonamide]",2,45,–
"CC1CN(C(=N)N)CCN1S(=O)(=O)c1cccc2c(Cl)nccc12 (centres unmarked) [Compound (45), 1-(1-chloro-5-isoquinolinesulfonyl)-4-amidino-2-methylpiperazine]",3,37,–
"N=C(N)NCCNS(=O)(=O)c1cccc2c(O)nccc12 [Compound (54), N-(2-guanidinoethyl)-1-hydroxy-5-isoquinolinesulfonamide]",18,40,LD50 (Acute Toxicity): 135 mg/kg
"CC1CN(S(=O)(=O)c2cccc3c(O)nccc23)CCN1 (centres unmarked) [Compound (61), 1-(1-hydroxy-5-isoquinolinesulfonyl)-3-methylpiperazine]",17,48,–
"N=C(N)NCCNS(=O)(=O)c1cccc2cnccc12 [compound 4, reference compound]",–,–,LD50 (Acute Toxicity): 48 mg/kg
"CCC1CN(S(=O)(=O)c2cccc3c(O)nccc23)CCN1 (centres unmarked) [Compound (62), 1-(1-hydroxy-5-isoquinolinesulfonyl)-3-ethylpiperazine]",25,36,–
"N=C(N)N1CCN(S(=O)(=O)c2cccc3c(Cl)nccc23)CC1 [Compound (43), 1-(1-chloro-5-isoquinolinesulfonyl)-4-amidinopiperazine]",2,32,–
"CCCCC(CNC(=N)N)NS(=O)(=O)c1cccc2c(Cl)nccc12 (centres unmarked) [Compound (34), N-(1-guanidinomethylpentyl)-1-chloro-5-isoquinolinesulfonamide]",8,45,–
"O=S(=O)(c1cccc2cnccc12)N1CCNCC(Cc2ccccc2)C1 (centres unmarked) [Compound (18), 1-(5-isoquinolinesulfonyl)-6-benzylhomopiperazine]",10,43,Increase in vertebral artery blood flow (vertebral artery; 0.3 mg/kg): 110%; LD50 (Acute Toxicity): 197 mg/kg; Increase in femoral artery blood flow (femoral artery; 0.3 mg/kg): 45%
"N=C(N)N1CCCN(S(=O)(=O)c2cccc3c(O)nccc23)CC1 [Compound (67), 1-(1-hydroxy-5-isoquinolinesulfonyl)-4-amidinohomopiperazine]",6,44,–
"CCCCN(CCCC)CCCNS(=O)(=O)c1cccc2c(O)nccc12 [Compound (52), N-(3-di-n-butylaminopropyl)-1-hydroxy-5-isoquinolinesulfonamide]",21,–,ΔPmax (maximally reduced blood pressure) ([2]; 50 mg/kg): 65 mmHg
"O=S(=O)(c1cccc2cnccc12)N1CCNCC1 [compound 2, reference compound]",–,11,Increase in vertebral artery blood flow (vertebral artery; 0.3 mg/kg): 36%; Increase in vertebral artery blood flow (vertebral artery; 1 mg/kg): 98%; LD50 (Acute Toxicity): 29 mg/kg; Increase in femoral artery blood flow (femoral artery; 0.3 mg/kg): 20%; Increase in femoral artery blood flow (femoral artery; 1 mg/kg): 69%
"CC(CNC(=N)N)CNS(=O)(=O)c1cccc2c(O)nccc12 (centres unmarked) [Compound (59), N-(3-guanidino-2-methylpropyl)-1-hydroxy-5-isoquinolinesulfonamide]",21,52,–
"CC1CN(S(=O)(=O)c2cccc3c(Cl)nccc23)C(C)CN1C(=N)N (centres unmarked) [Compound (46), 1-(1-chloro-5-isoquinolinesulfonyl)-4-amidino-2,5-dimethylpiperazine]",5,41,–

# Further lines, with some results ahead:
EC50 [1] [µM],Structure (SMILES),ΔPmax (maximally reduced blood pressure) ([2]; 100 mg/kg) [mmHg],also measured
7,"CC(CNC(=N)N)CNS(=O)(=O)c1cccc2c(Cl)nccc12 (centres unmarked) [Compound (36), N-(3-guanidino-2-methylpropyl)-1-chloro-5-isoquinolinesulfonamide]",48,–
14,"CC(CN)NS(=O)(=O)c1cccc2c(O)nccc12 (centres unmarked) [Compound (49), N-(2-amino-1-methylethyl)-1-hydroxy-5-isoquinolinesulfonamide]",–,ΔPmax (maximally reduced blood pressure) ([2]; 50 mg/kg): 33 mmHg
13,"N=C(N)NCCCCNS(=O)(=O)c1cccc2c(O)nccc12 [Compound (55), N-(4-guanidinobutyl)-1-hydroxy-5-isoquinolinesulfonamide]",38,–
14,"CC1CN(S(=O)(=O)c2cccc3c(Cl)nccc23)C(C)CN1 (centres unmarked) [Compound (41), 1-(1-chloro-5-isoquinolinesulfonyl)-2,5-dimethylpiperazine]",39,–
4,"CC(CN)NS(=O)(=O)c1cccc2c(Cl)nccc12 (centres unmarked) [Compound (26), N-(2-amino-1-methylethyl)-1-chloro-5-isoquinolinesulfonamide]",–,ΔPmax (maximally reduced blood pressure) ([2]; 50 mg/kg): 53 mmHg
25,"CN1CCN(S(=O)(=O)c2cccc3c(O)nccc23)CC1 [Compound (65), 1-(1-hydroxy-5-isoquinolinesulfonyl)-4-methylpiperazine]",53,–
5,"NCCNS(=O)(=O)c1cccc2c(Cl)nccc12 [Compound (24), N-(2-aminoethyl)-1-chloro-5-isoquinolinesulfonamide]",–,ΔPmax (maximally reduced blood pressure) ([2]; 50 mg/kg): 70 mmHg
18,"CC(C)CC1CN(S(=O)(=O)c2cccc3c(O)nccc23)CCN1 (centres unmarked) [Compound (63), 1-(1-hydroxy-5-isoquinolinesulfonyl)-3-isobutylpiperazine]",48,–
17,"CC1CN(S(=O)(=O)c2cccc3c(Cl)nccc23)CCN1 (centres unmarked) [Compound (38), 1-(1-chloro-5-isoquinolinesulfonyl)-3-methylpiperazine]",45,–
4,"N=C(N)N1CCCN(S(=O)(=O)c2cccc3c(Cl)nccc23)CC1 [Compound (44), 1-(1-chloro-5-isoquinolinesulfonyl)-4-amidinohomopiperazine]",25,–
2,"O=S(=O)(c1cccc2c(Cl)nccc12)N1CCCNCC1 [Compound (76), 1-(1-chloro-5-isoquinolinesulfonyl)homopiperazine]",60,–
11,"CCCCN(CCCC)CCCNS(=O)(=O)c1cccc2c(Cl)nccc12 [Compound (29), N-(3-di-n-butylaminopropyl)-1-chloro-5-isoquinolinesulfonamide]",–,ΔPmax (maximally reduced blood pressure) ([2]; 50 mg/kg): 43 mmHg
